Assay results as given in article PMC5916808 (Journal of medicinal chemistry, 2017).
Values joined by “and” are separate entries in the source; they are usually repeats but may differ in a detail not shown here. Equal entries are not always repeated.

Tests used:
[1] = tested on: GluN1/GluN2A, GluN1/GluN2B, GluN1/GluN2C, and GluN1/GluN2D NMDA receptors; assay: Two-electrode voltage clamp, activity profile across GluN2 subunits; assay type: cell-based, rat; details: potentiation of response to maximal glutamate and glycine
GluN1/GluN2B receptors = details: noncompetitive inhibitor; cited from earlier work
[2] = target: GluN1/GluN2B NMDA receptors (Rattus norvegicus, UniProt Q00960); assay type: cell-based; details: for fold increase in potency at GluN2B, thioamide compared to amide: 138 vs 2, 142 vs 97
[3] = Solubility of test compound in oocyte recording solution; assay type: physicochemical; details: aqueous buffer
[4] = ref Jensen, Egebjerg, Bundgaard, unpublished data; cited from earlier work
[5] = tested on: AMPA or kainate receptors; details: cited from earlier work
[6] = cited from earlier work
[7] = target: T1, GluN1/GluN2C NMDA receptors (Rattus norvegicus, UniProt Q00961); assay type: cell-based
[8] = target: T2, GluN1/GluN2D NMDA receptors (Rattus norvegicus, UniProt Q62645); assay type: cell-based
[9] = target: GluN1/GluN2D NMDA receptors (Rattus norvegicus, UniProt P35439+Q62645); assay type: cell-based
[10] = target: T2, GluN1/GluN2D NMDA receptors; details: 30 μM; previously published data; cited from earlier work
[11] = target: T1, GluN1/GluN2C NMDA receptors; details: 30 μM; previously published data; cited from earlier work
[12] = Pharmacokinetics and brain penetration after IP dosing, LC/MS/MS; assay type: in vivo, C57Bl/6 mice
GluK2 = GluK2 (Rattus norvegicus, UniProt P42260); assay: Two-electrode voltage clamp, GluK2 homomeric receptors in Xenopus oocytes; assay type: cell-based; details: 30 μM compound co-applied with 100 μM glutamate and 30 μM glycine, n=9
[13] = percentage of the initial glutamate (100 μM) and glycine (30 μM) current
[14] = 30 μM co-applied with either 30 μM glutamate or 10 μM glycine

T2 sequence (Q62645 28-1323, other chains not shown): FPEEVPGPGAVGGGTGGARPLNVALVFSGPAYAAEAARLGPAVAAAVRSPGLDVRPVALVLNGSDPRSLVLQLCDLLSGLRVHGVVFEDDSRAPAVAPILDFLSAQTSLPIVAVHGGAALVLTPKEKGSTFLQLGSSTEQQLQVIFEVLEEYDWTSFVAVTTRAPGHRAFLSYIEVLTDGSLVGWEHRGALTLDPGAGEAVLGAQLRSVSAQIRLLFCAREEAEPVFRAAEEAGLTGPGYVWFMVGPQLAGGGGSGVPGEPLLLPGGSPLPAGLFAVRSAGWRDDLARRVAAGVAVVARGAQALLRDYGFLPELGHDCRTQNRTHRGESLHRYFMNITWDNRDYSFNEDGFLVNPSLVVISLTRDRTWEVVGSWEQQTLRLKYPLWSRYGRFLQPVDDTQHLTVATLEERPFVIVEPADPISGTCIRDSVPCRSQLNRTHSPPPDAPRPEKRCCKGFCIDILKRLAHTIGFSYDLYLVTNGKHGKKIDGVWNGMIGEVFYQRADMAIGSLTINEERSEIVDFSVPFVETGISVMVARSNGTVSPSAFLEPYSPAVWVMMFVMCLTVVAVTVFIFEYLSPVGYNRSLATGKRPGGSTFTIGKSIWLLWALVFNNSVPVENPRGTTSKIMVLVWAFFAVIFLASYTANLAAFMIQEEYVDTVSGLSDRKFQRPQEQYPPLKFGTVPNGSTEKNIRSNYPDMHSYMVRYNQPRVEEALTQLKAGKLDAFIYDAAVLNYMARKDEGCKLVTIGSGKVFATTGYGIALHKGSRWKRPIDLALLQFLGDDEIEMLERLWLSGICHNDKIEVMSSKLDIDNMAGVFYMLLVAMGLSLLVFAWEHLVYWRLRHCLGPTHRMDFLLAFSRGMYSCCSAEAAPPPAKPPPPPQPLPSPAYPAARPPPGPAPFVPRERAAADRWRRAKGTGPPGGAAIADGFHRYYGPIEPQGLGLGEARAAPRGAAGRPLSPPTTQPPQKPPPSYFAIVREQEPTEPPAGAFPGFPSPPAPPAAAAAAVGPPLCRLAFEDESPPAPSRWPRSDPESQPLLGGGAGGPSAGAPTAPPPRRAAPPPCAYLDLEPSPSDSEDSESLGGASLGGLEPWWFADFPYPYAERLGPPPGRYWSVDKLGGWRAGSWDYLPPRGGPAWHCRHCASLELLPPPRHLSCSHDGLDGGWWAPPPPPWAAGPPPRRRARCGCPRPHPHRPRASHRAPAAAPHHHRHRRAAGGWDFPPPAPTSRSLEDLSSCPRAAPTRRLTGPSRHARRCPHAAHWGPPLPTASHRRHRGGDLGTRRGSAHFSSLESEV
Sequence of GluN1/GluN2B NMDA receptors (Q00960 27-1482, other chains not shown): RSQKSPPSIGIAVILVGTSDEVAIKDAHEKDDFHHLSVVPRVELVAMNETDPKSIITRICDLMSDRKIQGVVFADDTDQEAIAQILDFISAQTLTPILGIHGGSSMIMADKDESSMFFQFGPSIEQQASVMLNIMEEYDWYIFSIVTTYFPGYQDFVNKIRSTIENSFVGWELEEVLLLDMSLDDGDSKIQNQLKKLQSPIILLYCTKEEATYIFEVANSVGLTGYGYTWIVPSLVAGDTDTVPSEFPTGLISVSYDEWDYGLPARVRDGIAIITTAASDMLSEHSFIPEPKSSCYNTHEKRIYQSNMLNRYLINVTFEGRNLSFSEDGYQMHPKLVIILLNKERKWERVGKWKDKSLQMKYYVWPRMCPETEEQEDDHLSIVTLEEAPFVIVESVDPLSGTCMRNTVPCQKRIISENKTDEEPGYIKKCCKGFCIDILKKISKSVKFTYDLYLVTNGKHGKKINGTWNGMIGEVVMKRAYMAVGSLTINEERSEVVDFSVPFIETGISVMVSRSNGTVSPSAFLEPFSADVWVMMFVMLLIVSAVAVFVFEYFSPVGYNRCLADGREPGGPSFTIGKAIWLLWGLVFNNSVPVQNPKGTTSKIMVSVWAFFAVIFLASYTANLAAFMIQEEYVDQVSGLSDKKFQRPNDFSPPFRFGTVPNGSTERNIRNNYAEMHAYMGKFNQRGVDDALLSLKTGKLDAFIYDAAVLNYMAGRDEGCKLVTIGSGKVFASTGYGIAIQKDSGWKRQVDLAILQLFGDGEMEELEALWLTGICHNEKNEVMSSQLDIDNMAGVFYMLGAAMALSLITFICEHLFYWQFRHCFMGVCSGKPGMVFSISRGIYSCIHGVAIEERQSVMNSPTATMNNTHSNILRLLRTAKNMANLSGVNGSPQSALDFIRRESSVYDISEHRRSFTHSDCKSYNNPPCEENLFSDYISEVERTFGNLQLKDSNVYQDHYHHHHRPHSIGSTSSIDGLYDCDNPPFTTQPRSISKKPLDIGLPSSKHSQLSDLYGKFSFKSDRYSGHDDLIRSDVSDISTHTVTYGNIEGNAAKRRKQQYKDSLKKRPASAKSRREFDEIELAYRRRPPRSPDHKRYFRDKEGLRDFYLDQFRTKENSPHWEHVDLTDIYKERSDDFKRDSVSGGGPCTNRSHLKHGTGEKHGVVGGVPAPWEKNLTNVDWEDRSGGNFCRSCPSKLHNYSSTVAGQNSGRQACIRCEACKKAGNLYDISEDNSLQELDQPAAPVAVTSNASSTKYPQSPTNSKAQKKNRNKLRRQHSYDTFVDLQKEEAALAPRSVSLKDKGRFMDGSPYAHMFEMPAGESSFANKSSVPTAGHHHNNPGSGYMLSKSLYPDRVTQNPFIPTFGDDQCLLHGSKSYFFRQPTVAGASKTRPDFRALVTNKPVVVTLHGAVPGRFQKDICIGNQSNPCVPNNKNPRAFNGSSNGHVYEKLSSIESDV
T1 sequence (Q00961 20-1237, other chains not shown): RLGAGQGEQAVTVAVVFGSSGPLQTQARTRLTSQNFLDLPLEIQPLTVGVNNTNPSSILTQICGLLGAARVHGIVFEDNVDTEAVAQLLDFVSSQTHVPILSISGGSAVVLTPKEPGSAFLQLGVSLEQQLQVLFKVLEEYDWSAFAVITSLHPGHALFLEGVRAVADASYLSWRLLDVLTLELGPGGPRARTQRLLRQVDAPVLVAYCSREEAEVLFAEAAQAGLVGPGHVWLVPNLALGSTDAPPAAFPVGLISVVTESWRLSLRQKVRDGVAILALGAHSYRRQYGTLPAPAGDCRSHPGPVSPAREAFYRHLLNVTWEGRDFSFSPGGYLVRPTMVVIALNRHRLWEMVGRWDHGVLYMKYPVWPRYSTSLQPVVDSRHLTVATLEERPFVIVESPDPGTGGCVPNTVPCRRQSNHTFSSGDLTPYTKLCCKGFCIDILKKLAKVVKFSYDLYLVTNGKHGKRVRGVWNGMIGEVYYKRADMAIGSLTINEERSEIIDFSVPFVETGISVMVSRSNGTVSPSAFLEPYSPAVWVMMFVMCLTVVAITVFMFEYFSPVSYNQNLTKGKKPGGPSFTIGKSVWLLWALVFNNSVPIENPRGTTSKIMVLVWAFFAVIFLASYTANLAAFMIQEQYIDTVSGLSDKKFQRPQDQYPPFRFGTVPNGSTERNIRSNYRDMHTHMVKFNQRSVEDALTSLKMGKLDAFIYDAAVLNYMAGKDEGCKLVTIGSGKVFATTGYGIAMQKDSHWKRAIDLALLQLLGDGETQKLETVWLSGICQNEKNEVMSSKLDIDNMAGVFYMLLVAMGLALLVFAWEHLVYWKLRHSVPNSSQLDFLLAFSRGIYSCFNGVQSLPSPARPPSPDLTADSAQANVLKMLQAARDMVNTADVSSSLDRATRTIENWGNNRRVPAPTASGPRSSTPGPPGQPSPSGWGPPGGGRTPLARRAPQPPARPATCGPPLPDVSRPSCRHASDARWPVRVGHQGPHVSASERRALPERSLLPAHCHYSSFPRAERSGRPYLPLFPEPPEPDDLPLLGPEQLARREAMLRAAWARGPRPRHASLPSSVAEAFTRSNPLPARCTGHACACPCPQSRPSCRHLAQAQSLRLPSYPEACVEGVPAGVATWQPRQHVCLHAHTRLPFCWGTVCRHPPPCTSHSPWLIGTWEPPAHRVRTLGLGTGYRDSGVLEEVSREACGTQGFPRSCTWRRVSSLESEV
Sequence of GluK2 (P42260 32-908): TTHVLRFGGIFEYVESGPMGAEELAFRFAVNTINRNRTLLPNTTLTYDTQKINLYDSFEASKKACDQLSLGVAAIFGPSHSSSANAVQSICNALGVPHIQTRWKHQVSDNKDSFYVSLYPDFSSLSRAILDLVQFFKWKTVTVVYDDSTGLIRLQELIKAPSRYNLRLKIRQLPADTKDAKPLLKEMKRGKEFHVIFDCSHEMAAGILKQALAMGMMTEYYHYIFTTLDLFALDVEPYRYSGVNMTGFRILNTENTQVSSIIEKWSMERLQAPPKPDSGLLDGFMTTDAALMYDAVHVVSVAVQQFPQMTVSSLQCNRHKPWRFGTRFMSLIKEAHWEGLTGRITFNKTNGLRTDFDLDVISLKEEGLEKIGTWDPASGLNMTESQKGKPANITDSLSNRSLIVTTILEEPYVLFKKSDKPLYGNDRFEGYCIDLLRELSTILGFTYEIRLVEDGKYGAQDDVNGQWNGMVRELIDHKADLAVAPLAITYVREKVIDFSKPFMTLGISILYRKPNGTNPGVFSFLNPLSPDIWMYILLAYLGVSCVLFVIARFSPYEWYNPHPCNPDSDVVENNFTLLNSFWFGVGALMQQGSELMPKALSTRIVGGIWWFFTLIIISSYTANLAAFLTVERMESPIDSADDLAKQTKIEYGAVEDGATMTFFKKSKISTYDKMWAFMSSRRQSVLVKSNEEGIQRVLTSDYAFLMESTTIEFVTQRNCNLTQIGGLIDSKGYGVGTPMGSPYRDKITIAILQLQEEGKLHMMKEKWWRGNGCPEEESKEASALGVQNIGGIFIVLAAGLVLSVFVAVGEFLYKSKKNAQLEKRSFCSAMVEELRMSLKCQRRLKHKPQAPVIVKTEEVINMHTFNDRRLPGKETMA
Sequence of GluN1/GluN2D NMDA receptors (Rattus norvegicus, UniProt P35439+Q62645) (Q62645 28-1323, other chains not shown): as the sequence (Q62645 28-1323, other chains not shown) above

Question: For `CCOc1ccc(OCC2c3ccc(OC(C)C)cc3CCN2C(=O)c2ccc(F)cc2)cc1` (stereo not shown) [Compound 104, (1-((4-Ethoxyphenoxy)methyl)-6-isopropoxy-3,4-dihydroisoquinolin-2(1H)-yl)(4-fluorophenyl)methanone], which “activity / subunit selectivity in words” value [1] is on record?
Answer: complete loss of activity

Question: For `CCOc1ccc(OCC2c3ccc(OC(C)C)cc3CCN2C(=O)c2ccc(Cl)cc2)cc1` (stereo not shown) [Compound 105, (4-Chlorophenyl)(1-((4-ethoxyphenoxy)methyl)-6-isopropoxy-3,4-dihydroisoquinolin-2(1H)-yl)methanone], which “activity / subunit selectivity in words” value [1] is on record?
Answer: complete loss of activity

Question: With `CC(C(O)c1ccc(O)cc1)N1CCC(Cc2ccccc2)CC1` (stereo not shown) [ifenprodil] as the molecule, how does the “fold more potent at GluN2B-containing receptors compared to GluN2A, GluN2C, or GluN2D” value (GluN1/GluN2B receptors) read?
Answer: > 100 fold

Question: Which “fold increase in potency at GluN2B, thioamide compared to amide” value [2] does the source give for `CCOc1ccc(OCC2c3ccc(OC(C)C)cc3CCN2C(=S)c2cccc(F)c2)cc1` (stereo not shown) [Compound 142, (1-((4-Ethoxyphenoxy)methyl)-6-isopropoxy-3,4-dihydroisoquinolin-2(1H)-yl)(3-fluorophenyl)methanethione] here?
Answer: 13 fold

Question: Which “activity / subunit selectivity in words” value [1] does the source give for `CCOc1ccc(OC[C@H]2c3ccc(OC(C)C)cc3CCN2C(=S)c2cccc(F)c2)cc1` [R-(+)-142, (R)-(1-((4-Ethoxyphenoxy)methyl)-6-isopropoxy-3,4-dihydroisoquinolin-2(1H)-yl)(3-fluorophenyl)methanethione] here?
Answer: no detectable potentiation of any NMDA receptor subunit combinations

Question: With `CCOc1ccc(OCC2c3ccc(OC(C)C)cc3CCN2C(=O)c2cccc(-c3ccccc3)c2)cc1` (stereo not shown) [Compound 99, Biphenyl-3-yl(1-((4-ethoxyphenoxy)methyl)-6-isopropoxy-3,4-dihydroisoquinolin-2(1H)-yl)methanone] as the molecule, how does the solubility [3] read?
Answer: < 30 µM

Question: What about the “activity / subunit selectivity in words” value [1] of the same molecule?
Answer: inactive

Question: For `CCOc1ccc(OCC2c3ccc(OC(C)C)cc3CCN2C(=O)c2ccccc2Cl)cc1` (stereo not shown) [Compound 103, (2-Chlorophenyl)(1-((4-ethoxyphenoxy)methyl)-6-isopropoxy-3,4-dihydroisoquinolin-2(1H)-yl)methanone], which “activity / subunit selectivity in words” value [1] is on record?
Answer: complete loss of activity

Question: For `CCOc1ccc(OCC2c3ccc(OC(C)C)cc3CCN2C(=O)c2cccc(OC)c2)cc1` (stereo not shown) [Compound 101, (1-((4-Ethoxyphenoxy)methyl)-6-isopropoxy-3,4-dihydroisoquinolin-2(1H)-yl)(3-methoxyphenyl)methanone], which “activity / subunit selectivity in words” value [1] is on record?
Answer: inactive

Question: Which “activity / subunit selectivity in words” value [1] does the source give for `CCOc1ccc(OCC2c3ccc(OC(C)C)cc3CCN2C(=O)c2ccccc2)cc1` (stereo not shown) [Compound 95, (1-((4-Ethoxyphenoxy)methyl)-6-isopropoxy-3,4-dihydroisoquinolin-2(1H)-yl)(phenyl)methanone] here?
Answer: inactive at all subunits

Question: For `CCOc1ccc(OCC2c3ccc(OC(C)C)cc3CCN2C(=O)c2ccc(F)c(F)c2)cc1` (stereo not shown) [Compound 106, (3,4-Difluorophenyl)(1-((4-ethoxyphenoxy)methyl)-6-isopropoxy-3,4-dihydroisoquinolin-2(1H)-yl)methanone], which “activity / subunit selectivity in words” value [1] is on record?
Answer: active

Question: For `COc1ccccc1OCC1c2ccc(OC(C)C)cc2CCN1C(=O)c1cccc(Cl)c1` (stereo not shown) [Compound 111, (3-Chlorophenyl)(6-isopropoxy-1-((2-methoxyphenoxy)methyl)-3,4-dihydroisoquinolin-2(1H)-yl)methanone], which “activity / subunit selectivity in words” value [1] is on record?
Answer: all activity was lost

Question: With `CCOc1ccc(OCC2c3ccc(OC(C)C)cc3CCN2C(=O)c2ccc(Cl)c(Cl)c2)cc1` (stereo not shown) [Compound 107, (3,4-Dichlorophenyl)(1-((4-ethoxyphenoxy)methyl)-6-isopropoxy-3,4-dihydroisoquinolin-2(1H)-yl)methanone] as the molecule, how does the solubility [3] read?
Answer: < 10 µM

Question: What about the “activity / subunit selectivity in words” value [1] of the same molecule?
Answer: active

Question: For `COc1ccc(OCC2c3cc(OC)c(OC)cc3CCN2C(=O)c2cccc(Cl)c2)cc1` (stereo not shown) [CIQ], which protein binding [4] is on record?
Answer: high protein binding

Question: And the “effect on AMPA or kainate receptors” value [5]?
Answer: no effect on AMPA or kainate receptors

Question: And the brain penetration [6]?
Answer: brain penetrant

Question: Which “activity / subunit selectivity in words” value [1] does the source give for `CCOc1ccc(OCC2c3ccc(OC(C)C)cc3CCN2C(=O)c2ccccc2F)cc1` (stereo not shown) [Compound 102, (1-((4-Ethoxyphenoxy)methyl)-6-isopropoxy-3,4-dihydroisoquinolin-2(1H)-yl)(2-fluorophenyl)methanone] here?
Answer: complete loss of activity

Question: For `CC(C)Oc1ccc(OCC2c3ccc(OC(C)C)cc3CCN2C(=O)c2cccc(Cl)c2)cc1` (stereo not shown) [Compound 113, (3-Chlorophenyl)(6-isopropoxy-1-((4-isopropoxyphenoxy)methyl)-3,4-dihydroisoquinolin-2(1H)-yl)methanone], which “activity / subunit selectivity in words” value [1] is on record?
Answer: moderately GluN2B-selective

Question: For `COc1ccc(OCC2c3ccc(OC(C)C)cc3CCN2C(=S)c2cccc(Cl)c2)cc1` (stereo not shown) [Compound 138, (3-Chlorophenyl)(6-isopropoxy-1-((4-methoxyphenoxy)methyl)-3,4-dihydroisoquinolin-2(1H)-yl)methanethione], which “fold increase in potency at GluN2B, thioamide compared to amide” value [2] is on record?
Answer: ~10 fold

Question: What about the “fold increase in potency at GluN2C, thioamide compared to amide” value ([7]; 138 vs 2) of the same molecule?
Answer: ~4 fold

Question: What about the “fold increase in potency at GluN2D, thioamide compared to amide” value ([8]; 138 vs 2) of the same molecule?
Answer: ~10 fold

Question: With `COc1ccc(OCC2c3ccc(OC(C)C)cc3CCN2C(=O)c2cccc(F)c2)cc1` (stereo not shown) [Compound 114, (3-Fluorophenyl)(6-isopropoxy-1-((4-methoxyphenoxy)methyl)-3,4-dihydroisoquinolin-2(1H)-yl)methanone] as the molecule, how does the “fitted maximum response GluN2B” value [2, 13] read?
Answer: 391%

Question: What about the EC50 [9] of the same molecule?
Answer: 11 µM

Question: What about the “fitted maximum response GluN2D” value [8, 13] of the same molecule?
Answer: 493%

Question: With `COc1ccc(OCC2c3ccc(OC)cc3CCN2C(=O)c2cccc(Cl)c2)cc1` (stereo not shown) [Compound 86] as the molecule, how does the “I30μM / Icontrol (mean ± SEM, %) GluN2D” value [10] read?
Answer: 215 ± 19%

Question: What about the “I30μM / Icontrol (mean ± SEM, %) GluN2C” value [11] of the same molecule?
Answer: 213 ± 13%

Question: For `CCOc1ccc(OCC2c3ccc(OC(C)C)cc3CCN2C(=O)c2cccc(F)c2)cc1` (stereo not shown) [Compound 97, (1-((4-Ethoxyphenoxy)methyl)-6-isopropoxy-3,4-dihydroisoquinolin-2(1H)-yl)(3-fluorophenyl)methanone], which “activity / subunit selectivity in words” value [1] is on record?
Answer: active at only GluN2B

Question: For `CCOc1ccc(OCC2c3ccc(OC(C)C)cc3CCN2C(=O)c2cccc(C)c2)cc1` (stereo not shown) [Compound 100, (1-((4-Ethoxyphenoxy)methyl)-6-isopropoxy-3,4-dihydroisoquinolin-2(1H)-yl)(m-tolyl)methanone], which “activity / subunit selectivity in words” value [1] is on record?
Answer: inactive

Question: For `CCOc1ccc(OCC2c3ccc(OC(C)C)cc3CCN2C(=O)c2ccc(F)c(Cl)c2)cc1` (stereo not shown) [Compound 108, (3-Chloro-4-fluorophenyl)(1-((4-ethoxyphenoxy)methyl)-6-isopropoxy-3,4-dihydroisoquinolin-2(1H)-yl)methanone], which “activity / subunit selectivity in words” value [1] is on record?
Answer: active

Question: For `COc1ccc(OCC2c3ccc(OC(C)C)cc3CCN2C(=O)c2cccc(Cl)c2)cc1` (stereo not shown) [Compound 2, (3-Chlorophenyl)(6-isopropoxy-1-((4-methoxyphenoxy)methyl)-3,4-dihydroisoquinolin-2(1H)-yl)methanone], which brain concentration ([12]; 10 mg/kg IP, at 15 and 30 min) is on record?
Answer: 303 ng/mL

Question: And the peak plasma concentration ([12]; 10 mg/kg IP, at 2 hours, n=3 mice)?
Answer: 789 ng/mL and 1.7 μM

Question: And the behavioral observations post-dosing ([12]; 10 mg/kg i.p.)?
Answer: No behavioral abnormalities were observed

Question: What about the concentration at 4 h ([12]; C57Bl/6, mouse, brain, intraperitoneal, 10 mg/kg) of the same molecule?
Answer: 169 ng/mL

Question: And the Tmax ([12]; C57Bl/6, mouse, plasma, ip, 10 mg/kg)?
Answer: 2 h

Question: And the “agonist activity at GluN1/GluN2B” value [2, 14]?
Answer: no agonist activity

Question: What about the “agonist activity at GluN1/GluN2C” value [7, 14] of the same molecule?
Answer: no agonist activity

Question: And the “response as % of the control response to glutamate alone, GluK2” value (GluK2)?
Answer: 96+9%

Question: And the “agonist activity at GluN1/GluN2D” value [8, 14]?
Answer: no agonist activity

Question: With `CCOc1ccc(OCC2c3ccc(OC(C)C)cc3CCN2C(=O)c2cc(Cl)cc(Cl)c2)cc1` (stereo not shown) [Compound 109] as the molecule, how does the solubility [3] read?
Answer: < 30 µM
